Experiment: xn = mol fraction of the nth substance listed
Conditions: 101 kPa

CCCC[n+]1ccn(C)c1.F[P-](F)(F)(F)(F)F + CN(C)CCO
x2 = 0
Conditions | electrical conductivity [S/m] | viscosity [mPa·s]
288.15 K | 0.105 | 350
293.15 K | 0.142 | 250
298.15 K | 0.185 | 182
303.15 K | 0.24 | 136
308.15 K | 0.309 | 102
313.15 K | 0.384 | 79
318.15 K | 0.421 | 62
323.15 K | 0.504 | 48

CN(C)CCO + CCCC[n+]1ccn(C)c1.F[P-](F)(F)(F)(F)F
Conditions | electrical conductivity [S/m] | viscosity [mPa·s]
288.15 K, x1 = 0.1221 | 0.12 | 213
288.15 K, x1 = 0.2143 | 0.14 | 159
288.15 K, x1 = 0.4405 | – | 81
288.15 K, x1 = 0.4637 | 0.179 | –
288.15 K, x1 = 0.605 | 0.206 | 46
288.15 K, x1 = 0.9128 | 0.135 | 9.5
288.15 K, x1 = 1 | 0.082 | 5
293.15 K, x1 = 0.1221 | 0.161 | 157
293.15 K, x1 = 0.3182 | 0.203 | 88
293.15 K, x1 = 0.3764 | 0.226 | –
293.15 K, x1 = 0.605 | 0.264 | 35
293.15 K, x1 = 0.709 | 0.266 | 23
293.15 K, x1 = 0.9128 | 0.16 | 8
293.15 K, x1 = 1 | 0.091 | 4.3
298.15 K, x1 = 0.2143 | 0.242 | 88
298.15 K, x1 = 0.3182 | 0.263 | 66
298.15 K, x1 = 0.3764 | 0.285 | –
298.15 K, x1 = 0.4405 | – | 46
298.15 K, x1 = 0.5166 | 0.322 | 36
298.15 K, x1 = 0.605 | 0.333 | 27
298.15 K, x1 = 0.709 | 0.332 | 18.2
298.15 K, x1 = 0.8063 | 0.297 | 11.8
303.15 K, x1 = 0.1221 | 0.272 | 88
303.15 K, x1 = 0.2143 | 0.311 | 68
303.15 K, x1 = 0.3182 | 0.341 | 51
303.15 K, x1 = 0.4637 | 0.389 | –
303.15 K, x1 = 0.5166 | 0.403 | 28
303.15 K, x1 = 0.605 | 0.414 | 21.4
303.15 K, x1 = 0.709 | 0.404 | 14.7
303.15 K, x1 = 0.9128 | 0.218 | 5.6
303.15 K, x1 = 1 | 0.11 | 3.2
308.15 K, x1 = 0.1221 | 0.348 | 67
308.15 K, x1 = 0.2143 | 0.396 | 52
308.15 K, x1 = 0.3182 | 0.431 | 39
308.15 K, x1 = 0.3764 | 0.461 | –
308.15 K, x1 = 0.5166 | 0.502 | 22.4
308.15 K, x1 = 0.605 | 0.51 | 17
308.15 K, x1 = 0.709 | 0.49 | 11.9
308.15 K, x1 = 0.8063 | 0.423 | 8
308.15 K, x1 = 0.9128 | 0.252 | 4.8
308.15 K, x1 = 1 | 0.12 | 2.9
313.15 K, x1 = 0.1221 | 0.434 | 53
313.15 K, x1 = 0.2143 | 0.491 | 41
313.15 K, x1 = 0.3182 | 0.531 | 31
313.15 K, x1 = 0.3764 | 0.564 | –
313.15 K, x1 = 0.4405 | – | 22.6
313.15 K, x1 = 0.4637 | 0.589 | –
313.15 K, x1 = 0.5166 | 0.606 | 18.1
313.15 K, x1 = 0.709 | 0.583 | 9.8
313.15 K, x1 = 0.8063 | 0.494 | 6.7
313.15 K, x1 = 0.9128 | 0.288 | 4.1
313.15 K, x1 = 1 | 0.131 | 2.5
318.15 K, x1 = 0.1221 | 0.531 | 42
318.15 K, x1 = 0.2143 | 0.599 | 33
318.15 K, x1 = 0.3182 | 0.648 | 25
318.15 K, x1 = 0.4405 | – | 18.6
318.15 K, x1 = 0.4637 | 0.713 | –
318.15 K, x1 = 0.5166 | 0.727 | 14.9
318.15 K, x1 = 0.605 | 0.726 | 11.6
318.15 K, x1 = 0.709 | 0.682 | 8.3
318.15 K, x1 = 0.8063 | 0.571 | 5.7
318.15 K, x1 = 0.9128 | 0.326 | 3.6
318.15 K, x1 = 1 | 0.141 | 2.27
323.15 K, x1 = 0.1221 | 0.63 | 35
323.15 K, x1 = 0.2143 | 0.712 | 28
323.15 K, x1 = 0.3182 | 0.767 | 21.2
323.15 K, x1 = 0.4405 | – | 15.7
323.15 K, x1 = 0.4637 | 0.834 | –
323.15 K, x1 = 0.605 | 0.841 | 9.9
323.15 K, x1 = 0.709 | 0.784 | 7.1
323.15 K, x1 = 0.8063 | 0.648 | 5
323.15 K, x1 = 0.9128 | 0.363 | 3.2

CCCC[n+]1ccn(C)c1.F[P-](F)(F)(F)(F)F + NCCO
Conditions | electrical conductivity [S/m] | viscosity [mPa·s]
288.15 K, x2 = 0 | 0.105 | 350
288.15 K, x2 = 0.1185 | 0.124 | 220
288.15 K, x2 = 0.2113 | 0.144 | 172
288.15 K, x2 = 0.3052 | 0.165 | 141
288.15 K, x2 = 0.387 | 0.177 | –
288.15 K, x2 = 0.4282 | 0.178 | 107
288.15 K, x2 = 0.4761 | 0.186 | –
288.15 K, x2 = 0.4918 | 0.186 | 93
288.15 K, x2 = 0.5352 | 0.194 | –
288.15 K, x2 = 0.5871 | 0.2 | –
288.15 K, x2 = 0.6161 | 0.197 | 70
288.15 K, x2 = 0.6533 | 0.198 | –
288.15 K, x2 = 0.6984 | 0.194 | 58
288.15 K, x2 = 0.9592 | 0.0794 | –
293.15 K, x2 = 0 | 0.142 | 250
293.15 K, x2 = 0.1185 | 0.167 | 159
293.15 K, x2 = 0.2113 | 0.194 | 125
293.15 K, x2 = 0.4282 | 0.239 | 78
293.15 K, x2 = 0.4761 | 0.251 | –
293.15 K, x2 = 0.4918 | 0.25 | 68
293.15 K, x2 = 0.6161 | 0.262 | 52
293.15 K, x2 = 0.6533 | 0.264 | –
293.15 K, x2 = 0.6984 | 0.259 | 44
293.15 K, x2 = 0.8022 | 0.243 | 34
293.15 K, x2 = 0.9028 | 0.178 | 27
298.15 K, x2 = 0.1185 | 0.221 | 117
298.15 K, x2 = 0.387 | 0.309 | –
298.15 K, x2 = 0.4282 | 0.312 | 59
298.15 K, x2 = 0.4761 | 0.329 | –
298.15 K, x2 = 0.4918 | 0.325 | 52
298.15 K, x2 = 0.5871 | 0.347 | –
298.15 K, x2 = 0.6161 | 0.34 | 39
298.15 K, x2 = 0.6533 | 0.346 | –
298.15 K, x2 = 0.6984 | 0.34 | 33
298.15 K, x2 = 0.9028 | 0.226 | 21.3
298.15 K, x2 = 0.9592 | 0.131 | –
303.15 K, x2 = 0 | 0.24 | 136
303.15 K, x2 = 0.1185 | 0.286 | 87
303.15 K, x2 = 0.2113 | 0.33 | 70
303.15 K, x2 = 0.3052 | 0.378 | 58
303.15 K, x2 = 0.387 | 0.397 | –
303.15 K, x2 = 0.4282 | 0.4 | 45
303.15 K, x2 = 0.4761 | 0.424 | –
303.15 K, x2 = 0.4918 | 0.415 | 39
303.15 K, x2 = 0.5871 | 0.445 | –
303.15 K, x2 = 0.6161 | 0.432 | 30
303.15 K, x2 = 0.6533 | 0.441 | –
303.15 K, x2 = 0.8022 | 0.397 | 20.8
303.15 K, x2 = 0.9028 | 0.283 | 16.9
303.15 K, x2 = 0.9592 | 0.164 | –
308.15 K, x2 = 0 | 0.309 | 102
308.15 K, x2 = 0.1185 | 0.366 | 67
308.15 K, x2 = 0.2113 | 0.422 | 55
308.15 K, x2 = 0.3052 | 0.486 | 44
308.15 K, x2 = 0.4918 | 0.529 | 30
308.15 K, x2 = 0.5352 | 0.551 | –
308.15 K, x2 = 0.5871 | 0.565 | –
308.15 K, x2 = 0.6161 | 0.55 | 23.6
308.15 K, x2 = 0.6533 | 0.561 | –
308.15 K, x2 = 0.6984 | 0.552 | 20.2
308.15 K, x2 = 0.8022 | 0.495 | 16.3
308.15 K, x2 = 0.9028 | 0.351 | 13.5
308.15 K, x2 = 0.9592 | 0.204 | –
313.15 K, x2 = 0 | 0.384 | 79
313.15 K, x2 = 0.1185 | 0.455 | 53
313.15 K, x2 = 0.2113 | 0.524 | 42
313.15 K, x2 = 0.387 | 0.627 | –
313.15 K, x2 = 0.4282 | 0.635 | 27
313.15 K, x2 = 0.4918 | 0.665 | 24.4
313.15 K, x2 = 0.5871 | 0.698 | –
313.15 K, x2 = 0.6161 | 0.676 | 18.8
313.15 K, x2 = 0.6533 | 0.693 | –
313.15 K, x2 = 0.6984 | 0.675 | 16.3
313.15 K, x2 = 0.8022 | 0.607 | 13.1
313.15 K, x2 = 0.9028 | 0.426 | 11
318.15 K, x2 = 0 | 0.421 | 62
318.15 K, x2 = 0.1185 | 0.558 | 42
318.15 K, x2 = 0.2113 | 0.641 | 34
318.15 K, x2 = 0.387 | 0.766 | –
318.15 K, x2 = 0.4761 | 0.813 | –
318.15 K, x2 = 0.5352 | 0.825 | –
318.15 K, x2 = 0.5871 | 0.846 | –
318.15 K, x2 = 0.6161 | 0.82 | 15.3
318.15 K, x2 = 0.6533 | 0.843 | –
318.15 K, x2 = 0.6984 | 0.821 | 12.8
318.15 K, x2 = 0.8022 | 0.731 | 10.8
318.15 K, x2 = 0.9028 | 0.526 | 9.1
318.15 K, x2 = 0.9592 | 0.3 | –
323.15 K, x2 = 0.1185 | 0.665 | 35
323.15 K, x2 = 0.2113 | 0.76 | 28
323.15 K, x2 = 0.387 | 0.915 | –
323.15 K, x2 = 0.4282 | 0.918 | 18.3
323.15 K, x2 = 0.4918 | 0.945 | 16.1
323.15 K, x2 = 0.5871 | 1 | –
323.15 K, x2 = 0.6161 | 0.971 | 12.8
323.15 K, x2 = 0.6533 | 0.999 | –
323.15 K, x2 = 0.6984 | 0.972 | 11.1
323.15 K, x2 = 0.8022 | 0.861 | 9.1
323.15 K, x2 = 0.9028 | 0.619 | 7.7
323.15 K, x2 = 0.9592 | 0.351 | –

NCCO + CCCC[n+]1ccn(C)c1.F[P-](F)(F)(F)(F)F
x1 = 1
Conditions | electrical conductivity [S/m] | viscosity [mPa·s]
298.15 K | 0.0023 | 18.6
303.15 K | 0.0027 | 15
308.15 K | 0.0032 | 11.9
313.15 K | 0.0036 | 9.9
323.15 K | 0.0069 | 7

Reference: a compilation of properties of binary mixtures (doi:10.1016/j.molliq.2008.06.014)
